Columns and labels:
Influenza A virus = experiment: Antiviral activity against Influenza A virus A/WSN/33(H1N1) strain infected in MDCK cells assessed as reduction in viral infection incubated for 48 hrs by crystal violet staining based assay; type: functional, organism-based
[1] = Cytotoxicity in dog MDCK cells assessed as reduction in cell viability incubated for 48 hrs by crystal violet staining based assay; type: toxicity, Canis lupus familiaris

Row | Structure (SMILES) | EC50 (Influenza A virus) [µM] | CC50 at 48 h [1] [µM]
1 | COc1ccc(C(C)N(Cc2ccc(C(C)(C)C)cc2)Cc2cc3cc(C)ccc3[nH]c2=O)cc1 (stereo not given) | 0.26 | > 5
2 | COc1ccc(CN(Cc2ccc(C(C)(C)C)cc2)Cc2cc3cc(C)ccc3[nH]c2=O)cc1 | 0.33 | > 10
3 | Cc1ccc2cc(CN(Cc3ccc(C(C)C)cc3)Cc3ccccc3F)c(=O)[nH]c2c1 | 1.8 | > 33
4 | Cc1ccc2cc(CN(Cc3ccc(Cl)cc3)Cc3ccc(Cl)cc3)c(=O)[nH]c2c1 |  | > 33
5 | CCc1ccc2[nH]c(=O)c(CN(Cc3ccc(O)cc3)Cc3ccc(C(C)(C)C)cc3)cc2c1 | 1.8 | > 10
6 | Cc1ccc2[nH]c(=O)c(CN(Cc3ccc(OCCO)cc3)Cc3ccc(C(C)(C)C)cc3)cc2c1 |  | > 5
7 | Cc1ccc2[nH]c(=O)c(CN(Cc3ccc(C(C)(C)C)cc3)C(C)c3ccc(OC(F)F)cc3)cc2c1 (stereo not given) | 0.36 | > 5
8 | Cc1ccc2cc(CN(Cc3ccc(Cl)cc3)Cc3ccc(C(C)C)cc3)c(=O)[nH]c2c1 | 6.1 | > 33
9 | CCc1ccc2[nH]c(=O)c(CN(Cc3ccc(C(C)(C)C)cc3)[C@@H](C)c3ccc(F)cc3)cc2c1 | 0.79 | > 5
10 | CCCCOc1ccc(CN(Cc2ccc(C(C)(C)C)cc2)Cc2cc3cc(C)ccc3[nH]c2=O)cc1 |  | > 5
11 | Cc1ccc2[nH]c(=O)c(CN(Cc3ccc(C(C)(C)C)cc3)C(C)c3ccc(F)cc3)cc2c1 (stereo not given) | 1.3 | > 33
12 | CCc1ccc2[nH]c(=O)c(CN(Cc3ccc(F)cc3)Cc3ccc(-c4ccccc4)cc3)cc2c1 |  | > 5
13 | Cc1ccc2[nH]c(=O)c(CN(Cc3ccc(N(C)C)cc3)Cc3ccc(C(C)(C)C)cc3)cc2c1 | 0.46 | > 5
14 | COc1ccc2[nH]c(=O)c(CN(Cc3ccc(N(C)C)cc3)Cc3ccc(C(C)(C)C)cc3)cc2c1 | 0.46 | 8.5
15 | Cc1ccc2cc(CN(Cc3ccc(C(C)C)cc3)Cc3cccc(F)c3)c(=O)[nH]c2c1 | 2.1 | > 33
16 | CC(c1ccc(N(C)C)c(Cl)c1)N(Cc1ccc(OC(F)(F)F)cc1)Cc1cc2cc(Br)ccc2[nH]c1=O (stereo not given) |  | 4.7
17 | CC(c1ccc(N(C)C)c(Cl)c1)N(Cc1ccc(C(C)(C)C)cc1)Cc1cc2cc(C3CC3)ccc2[nH]c1=O (stereo not given) | 0.09 | > 10
18 | Cc1ccc2[nH]c(=O)c(CN(Cc3ccc(OCC(=O)O)cc3)Cc3ccc(C(C)(C)C)cc3)cc2c1 | 2.7 | > 10
19 | CN(C)c1ccc(CN(Cc2ccc(C(C)(C)C)cc2)Cc2cc3cc(Cl)ccc3[nH]c2=O)cc1 | 1.5 | > 10

Row | Structure (SMILES) | EC50 (Influenza A virus) [µM] | CC50 at 48 h [1] [µM]
20 | CCc1ccc2cc(CN(Cc3ccc(C(C)(C)C)cc3)C3CCCC3)c(=O)[nH]c2c1 |  | > 9
21 | C[C@H](c1ccc(OC(F)(F)F)cc1)N(Cc1ccc(C(C)(C)C)cc1)Cc1cc2cc(C3CC3)ccc2[nH]c1=O | 2.01 | 
22 | CCc1ccc2[nH]c(=O)c(CN(CCCO)Cc3ccc(C(C)(C)C)cc3)cc2c1 |  | > 10
23 | COc1ccc([C@H](C)N(Cc2ccc(C(C)(C)C)cc2)Cc2cc3cc(OC)ccc3[nH]c2=O)cc1 | 0.12 | 4.1
24 | COCOc1ccc(CN(Cc2ccc(C(C)(C)C)cc2)Cc2cc3cc(C)ccc3[nH]c2=O)cc1 | 0.38 | 6.4
25 | CC(c1ccc(OC(F)(F)F)c(Cl)c1)N(Cc1ccc(C(C)(C)C)cc1)Cc1cc2cc(Br)ccc2[nH]c1=O (stereo not given) | 0.28 | > 10
26 | CCc1ccc2[nH]c(=O)c(CN(Cc3ccc(OC(F)F)cc3)Cc3ccc(C(C)(C)C)cc3)cc2c1 | 0.46 | > 5
27 | COc1ccc(CN(Cc2ccc(C(C)(C)C)cc2)Cc2cc3ccccc3[nH]c2=O)cc1 |  | 1.8
28 | CCCCC(c1cc2ccc(C)cc2[nH]c1=O)N(Cc1ccc(F)cc1)Cc1ccc(C(C)C)cc1 (stereo not given) |  | > 33
29 | Cc1ccc2[nH]c(=O)c(CN(Cc3ccc(F)cc3)Cc3ccc(-c4ccccc4)cc3)cc2c1 |  | > 5
30 | CCc1ccc2[nH]c(=O)c(CN(Cc3ccc(C(C)(C)C)cc3)[C@H](CO)c3ccccc3)cc2c1 |  | > 10
31 | Cc1ccc2[nH]c(=O)c(CN(CCCO)Cc3ccc(C(C)(C)C)cc3)cc2c1 |  | > 10
32 | Cc1ccc2[nH]c(=O)c(CN(Cc3ccc(C(C)(C)C)cc3)[C@H](C)c3ccc(F)cc3)cc2c1 |  | > 5
33 | CCc1ccc2[nH]c(=O)c(CN(Cc3ccc(C(C)(C)C)cc3)[C@H](C)c3ccc(F)cc3)cc2c1 |  | > 5
34 | COc1ccc([C@H](C)N(Cc2ccc(C(C)(C)C)cc2)Cc2cc3ccccc3[nH]c2=O)cc1 |  | 1.8
35 | CCc1ccc2[nH]c(=O)c(CN(Cc3ccc(F)cc3)Cc3cccc4ccccc34)cc2c1 |  | > 5
36 | Cc1ccc2cc(CN(Cc3ccc(F)cc3)C(=O)c3ccccc3)c(=O)[nH]c2c1 |  | > 33
37 | Cc1cccc2cc(CN(Cc3ccc(F)cc3)Cc3ccc(C(C)(C)C)cc3)c(=O)[nH]c12 | 1.8 | 

Source: ChEMBL document CHEMBL5042495, “Lead Optimization of Influenza Virus RNA Polymerase Inhibitors Targeting PA-PB1 Interaction” (J Med Chem, 2022)
